# Laboratory results published in patent publication US20260092071A1, “COMPOUNDS AND COMPOSITIONS AS SMARCA2/4 DEGRADERS AND USES THEREOF” (REGENTS OF THE UNIVERSITY OF MICHIGAN, priority 2022, published 2026).
# Read-outs that look alike come from different tables or passages of the source.
# Columns and labels:
# [1] = biological target: SMARCA2 (Homo sapiens, UniProt P51531); test: HiBiT assay for protein degradation, Hela SMARCA2-HiBiT cells (A series); format: cell-based; design: Hela cells were genetically modified via CRISPR/Cas9 to fuse HiBiT to the carboxy terminus of SMARCA2; host or cells: HeLa (CRISPR/Cas9 HiBiT knock-in); conditions: for DC50: read-out: SMARC A2 Hela HiBit DC50; for Dmax: read-out: SMARC A2 Hela HiBit Dmax (%);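 for SMARC A2 Hela HiBit Dmax (%): 24 h compound treatment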
# Method in brief: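 HeLa cells engineered by CRISPR/Cas9 to carry a HiBiT tag fused to the C-terminus of SMARCA2 (Promega CS302365) were grown in DMEM supplemented with FBS and penicillin-streptomycin. After treatment, remaining SMARCA2 protein was quantified with the Nano-Glo® HiBiT Lytic Detection Assay (Promega N3050), and curves were fitted in GraphPad Prism.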
# [2] = biological target: SMARCA4 (Homo sapiens, UniProt P51532); test: HiBiT assay for protein degradation, Hela SMARCA4-HiBiT cells (A series); format: cell-based; design: fuse HiBiT to the carboxy terminus of SMARCA2 (Promega CS302365) or SMARCA4 (Promega CS3023225); host or cells: HeLa (CRISPR/Cas9 HiBiT knock-in); conditions: Hela SMARCA4-HiBiT cells, 24 hours treatment; for DC50: read-out: SMARC A4 Hela HiBit DC50
# Method in brief: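 HeLa cells engineered by CRISPR/Cas9 to carry a HiBiT tag fused to the C-terminus of SMARCA4 (Promega CS3023225) were grown in DMEM supplemented with FBS and penicillin-streptomycin. After compound exposure, remaining SMARCA4 protein was quantified using the Nano-Glo® HiBiT Lytic Detection Assay (Promega N3050), and curves were fitted in GraphPad Prism.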
# [3] = Hela SMARCA2-HiBiT cells, 24 hours treatment
# [4] = read-out: SMARC A4 Hela HiBit Dmax
# [5] = read-out: SMARC A4 Hela HiBit Dmax(%)
# SMARCA2, sequence (P51531 whole entry, the tested form may be a part): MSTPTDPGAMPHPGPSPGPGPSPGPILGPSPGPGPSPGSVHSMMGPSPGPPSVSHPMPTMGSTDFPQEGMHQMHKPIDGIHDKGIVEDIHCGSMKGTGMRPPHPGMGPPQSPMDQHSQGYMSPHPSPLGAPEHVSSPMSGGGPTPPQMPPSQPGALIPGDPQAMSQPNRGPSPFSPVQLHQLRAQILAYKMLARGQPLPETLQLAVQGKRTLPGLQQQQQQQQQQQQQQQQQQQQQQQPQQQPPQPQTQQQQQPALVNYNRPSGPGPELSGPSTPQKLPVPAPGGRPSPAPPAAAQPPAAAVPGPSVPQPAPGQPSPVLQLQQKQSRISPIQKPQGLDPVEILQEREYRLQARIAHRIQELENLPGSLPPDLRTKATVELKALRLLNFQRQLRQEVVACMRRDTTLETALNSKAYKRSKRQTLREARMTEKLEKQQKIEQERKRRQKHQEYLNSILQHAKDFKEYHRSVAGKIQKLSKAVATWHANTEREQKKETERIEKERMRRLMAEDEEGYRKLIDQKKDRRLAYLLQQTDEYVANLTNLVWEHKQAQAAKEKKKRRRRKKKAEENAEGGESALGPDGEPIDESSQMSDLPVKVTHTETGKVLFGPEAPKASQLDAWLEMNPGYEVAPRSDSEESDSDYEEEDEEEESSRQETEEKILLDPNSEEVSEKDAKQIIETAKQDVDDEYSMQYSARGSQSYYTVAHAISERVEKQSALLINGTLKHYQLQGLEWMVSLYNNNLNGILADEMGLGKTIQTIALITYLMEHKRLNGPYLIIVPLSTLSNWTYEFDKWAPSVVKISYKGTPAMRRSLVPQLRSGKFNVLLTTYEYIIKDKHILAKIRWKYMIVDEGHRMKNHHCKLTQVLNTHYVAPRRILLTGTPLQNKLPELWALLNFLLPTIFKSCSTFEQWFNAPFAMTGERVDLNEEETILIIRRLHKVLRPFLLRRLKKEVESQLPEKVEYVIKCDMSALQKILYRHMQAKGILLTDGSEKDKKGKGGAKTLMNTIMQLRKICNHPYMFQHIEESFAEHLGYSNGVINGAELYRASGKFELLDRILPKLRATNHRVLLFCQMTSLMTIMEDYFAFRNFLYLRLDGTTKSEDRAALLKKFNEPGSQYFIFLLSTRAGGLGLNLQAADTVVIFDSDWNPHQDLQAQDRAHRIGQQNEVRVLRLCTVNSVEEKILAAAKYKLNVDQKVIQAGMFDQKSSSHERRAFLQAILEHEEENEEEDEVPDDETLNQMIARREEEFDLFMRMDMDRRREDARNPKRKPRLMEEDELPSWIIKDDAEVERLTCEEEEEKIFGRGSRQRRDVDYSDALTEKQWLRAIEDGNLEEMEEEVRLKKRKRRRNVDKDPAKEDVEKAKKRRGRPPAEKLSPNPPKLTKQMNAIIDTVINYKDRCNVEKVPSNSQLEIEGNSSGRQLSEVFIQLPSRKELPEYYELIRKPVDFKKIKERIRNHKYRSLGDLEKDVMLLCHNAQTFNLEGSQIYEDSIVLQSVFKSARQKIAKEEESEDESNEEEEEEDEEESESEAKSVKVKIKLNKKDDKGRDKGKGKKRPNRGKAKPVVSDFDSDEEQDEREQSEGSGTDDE
# SMARCA4, sequence (P51532 whole entry, the tested form may be a part): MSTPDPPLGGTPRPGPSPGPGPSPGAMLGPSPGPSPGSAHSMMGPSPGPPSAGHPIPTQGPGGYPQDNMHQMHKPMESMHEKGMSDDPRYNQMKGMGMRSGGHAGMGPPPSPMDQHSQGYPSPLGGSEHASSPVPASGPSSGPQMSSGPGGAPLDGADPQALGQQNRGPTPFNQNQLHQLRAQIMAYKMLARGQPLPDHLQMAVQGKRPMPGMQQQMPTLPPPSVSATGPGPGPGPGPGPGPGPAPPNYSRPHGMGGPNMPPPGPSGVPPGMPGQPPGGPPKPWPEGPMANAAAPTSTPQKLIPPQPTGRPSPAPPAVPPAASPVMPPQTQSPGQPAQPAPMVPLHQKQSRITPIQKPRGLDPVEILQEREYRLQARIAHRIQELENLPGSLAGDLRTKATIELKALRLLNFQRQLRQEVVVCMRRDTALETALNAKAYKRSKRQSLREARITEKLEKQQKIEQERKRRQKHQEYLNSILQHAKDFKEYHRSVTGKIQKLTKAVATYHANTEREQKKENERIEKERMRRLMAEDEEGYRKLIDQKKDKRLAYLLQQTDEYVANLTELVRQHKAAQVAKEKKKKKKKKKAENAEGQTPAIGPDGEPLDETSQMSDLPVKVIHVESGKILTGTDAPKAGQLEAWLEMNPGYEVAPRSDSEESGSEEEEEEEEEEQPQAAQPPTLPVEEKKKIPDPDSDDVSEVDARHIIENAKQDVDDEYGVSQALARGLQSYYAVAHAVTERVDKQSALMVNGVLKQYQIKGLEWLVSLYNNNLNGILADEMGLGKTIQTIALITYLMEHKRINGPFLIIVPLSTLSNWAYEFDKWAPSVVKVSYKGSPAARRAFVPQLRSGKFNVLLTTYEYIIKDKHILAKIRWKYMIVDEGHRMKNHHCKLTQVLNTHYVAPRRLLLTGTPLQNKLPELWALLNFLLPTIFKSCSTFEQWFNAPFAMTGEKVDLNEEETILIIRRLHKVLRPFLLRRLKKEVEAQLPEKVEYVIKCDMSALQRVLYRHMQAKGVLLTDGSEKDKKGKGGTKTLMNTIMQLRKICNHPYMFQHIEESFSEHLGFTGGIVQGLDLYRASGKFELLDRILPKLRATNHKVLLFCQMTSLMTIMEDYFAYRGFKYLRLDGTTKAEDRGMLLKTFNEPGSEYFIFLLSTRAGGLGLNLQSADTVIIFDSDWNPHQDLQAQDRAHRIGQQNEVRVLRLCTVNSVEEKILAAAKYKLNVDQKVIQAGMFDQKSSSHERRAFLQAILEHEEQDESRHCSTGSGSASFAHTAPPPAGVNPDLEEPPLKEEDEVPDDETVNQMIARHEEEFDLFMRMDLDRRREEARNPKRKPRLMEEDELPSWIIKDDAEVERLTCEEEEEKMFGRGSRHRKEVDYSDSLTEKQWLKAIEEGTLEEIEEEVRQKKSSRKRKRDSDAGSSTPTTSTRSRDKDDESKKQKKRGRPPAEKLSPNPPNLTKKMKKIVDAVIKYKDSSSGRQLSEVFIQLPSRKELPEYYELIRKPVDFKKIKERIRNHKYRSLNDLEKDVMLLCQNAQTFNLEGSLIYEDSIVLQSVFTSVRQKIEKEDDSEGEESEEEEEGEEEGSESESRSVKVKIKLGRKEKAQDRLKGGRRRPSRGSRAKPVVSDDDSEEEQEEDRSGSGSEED
Structure (SMILES),"DC50 [1, 3] [nM]","Dmax [1, 3] [%]",DC50 [2] [nM],"Dmax [2, 4] [%]",Dmax ([1]; HeLa) [%],"Dmax [2, 5] [%]"
"COC(=O)C1CCN(C[C@H](NC(=O)[C@@H]2C[C@@H](O)CN2C(=O)[C@@H](n2cc([C@H]3CC[C@H](CN4CCC(c5ccc6c(c5)-n5c(nc(=O)c7c(Cl)cccc75)C65CCCCC5)CC4)CC3)nn2)C(C)(C)C)c2ccc(-c3scnc3C)cc2)CC1 [Compound A153, methyl 1-((R)-2-((2S,4R)-1-((S)-2-(4-((1r,4S)-4-((4-(4′-chloro-5′-oxo-5′H-spiro[cyclohexane-1,7′-indolo[1,2-a]quinazolin]-10′-yl)piperidin-1-yl)methyl)cyclohexyl)-1H-1,2,3-triazol-1-yl)-3,3-dimethylbutanoyl)-4-hydroxypyrrolidine-2-carboxamido)-2-(4-(4-methylthiazol-5-yl)phenyl)ethyl)piperidine-4-carboxylate]",< 10,> 90,> 1000,50 to 69,–,–
"CC(C)(C)[C@@H](C(=O)N1C[C@H](O)C[C@H]1C(=O)N[C@@H](CN1CCOCC1)c1ccc(-c2ccccn2)cc1)n1cc([C@H]2CC[C@H](CN3CCC(c4ccc5c(c4)-n4c(nc(=O)c6c(Cl)cccc64)C54CCCCC4)CC3)CC2)nn1 [Compound A173, (2S,4R)-1-((S)-2-(4-((1r,4S)-4-((4-(4′-chloro-5′-oxo-5′H-spiro[cyclohexane-1,7′-indolo[1,2-a]quinazolin]-10′-yl)piperidin-1-yl)methyl)cyclohexyl)-1H-1,2,3-triazol-1-yl)-3,3-dimethylbutanoyl)-4-hydroxy-N—((R)-2-morpholino-1-(4-(pyridin-2-yl)phenyl)ethyl)pyrrolidine-2-carboxamide]",< 10,> 90,> 1000,< 50,–,–
"COCCOC[C@H](NC(=O)[C@@H]1C[C@@H](O)CN1C(=O)[C@@H](n1cc([C@H]2CC[C@H](CN3CCC(c4ccc5c(c4)-n4c(nc(=O)c6c(Cl)cccc64)C5(C)C)CC3)CC2)nn1)C(C)(C)C)c1ccc(-c2scnc2C)cc1 [Compound A91, (2S,4R)-1-((S)-2-(4-((1r,4S)-4-((4-(4-chloro-7,7-dimethyl-5-oxo-5,7-dihydroindolo[1,2-a]quinazolin-10-yl)piperidin-1-yl)methyl)cyclohexyl)-1H-1,2,3-triazol-1-yl)-3,3-dimethylbutanoyl)-4-hydroxy-N-(®-2-(2-methoxyethoxy)-1-(4-(4-methylthiazol-5-yl)phenyl)ethyl)pyrrolidine-2-carboxamide]",< 10,> 90,> 1000,< 50,–,–
"C[C@H](NC(=O)[C@@H]1C[C@@H](O)CN1C(=O)[C@@H](n1cc([C@H]2CC[C@H](CN3CCC(c4ccc5c(c4)-n4c(nc(=O)c6c(Br)cccc64)C54CCCCC4)CC3)CC2)nn1)C(C)(C)C)c1ccc(Cl)cc1 [Compound A68, (2S,4R)-1-((S)-2-(4-((1r,4S)-4-((4-(4′-bromo-5′-oxo-5′H-spiro[cyclohexane-1,7′-indolo[1,2-a]quinazolin]-10′-yl)piperidin-1-yl)methyl)cyclohexyl)-1H-1,2,3-triazol-1-yl)-3,3-dimethylbutanoyl)-N—((S)-1-(4-chlorophenyl)ethyl)-4-hydroxypyrrolidine-2-carboxamide]",< 100,–,> 1000,–,> 90,–
"CC(C)(C)[C@@H](C(=O)N1C[C@H](O)C[C@H]1C(=O)N[C@@H](CN1CCOCC1)c1ccc(-c2ccccc2)cc1)n1cc([C@H]2CC[C@H](CN3CCC(c4ccc5c(c4)-n4c(nc(=O)c6c(Cl)cccc64)C54CCCCC4)CC3)CC2)nn1 [Compound A162, (2S,4R)—N—((R)-1-([1,1′-biphenyl]-4-yl)-2-morpholinoethyl)-1-((S)-2-(4-((1r,4S)-4-((4-(4′-chloro-5′-oxo-5′H-spiro[cyclohexane-1,7′-indolo[1,2-a]quinazolin]-10′-yl)piperidin-1-yl)methyl)cyclohexyl)-1H-1,2,3-triazol-1-yl)-3,3-dimethylbutanoyl)-4-hydroxypyrrolidine-2-carboxamide]",< 10,> 90,100 to 1000,50 to 69,–,–
"Cc1ncsc1-c1ccc([C@H](C)NC(=O)[C@@H]2C[C@@H](O)CN2C(=O)[C@@H](n2cc(CCCN3CCC(c4ccc5c(c4)C4(CCCCC4)c4nc(=O)c6c(Br)cccc6n4-5)CC3)nn2)C(C)(C)C)cc1 [Compound A55, (2S,4R)-1-((S)-2-(4-(3-(4-(4′-bromo-5′-oxo-5′H-spiro[cyclohexane-1,7′-indolo[1,2-a]quinazolin]-9′-yl)piperidin-1-yl)propyl)-1H-1,2,3-triazol-1-yl)-3,3-dimethylbutanoyl)-4-hydroxy-N—((S)-1-(4-(4-methylthiazol-5-yl)phenyl)ethyl)pyrrolidine-2-carboxamide]",< 100,> 90,< 100,–,–,> 90
"CC(C)(C)[C@H](NC(=O)C1(F)CC1)C(=O)N1C[C@H](O)C[C@H]1C(=O)N[C@@H](CCCCCN1CCC(c2ccc3c(c2)C2(CCCCC2)c2nc(=O)c4c(Br)cccc4n2-3)CC1)c1ccc(Cl)cc1 [Compound A25, (2S,4R)—N—((S)-6-(4-(4′-bromo-5′-oxo-5′H-spiro[cyclohexane-1,7-indolo[1,2-a]quinazolin]-9′-yl)piperidin-1-yl)-1-(4-chlorophenyl)hexyl)-1-((S)-2-(1-fluorocyclopropane-1-carboxamido)-3,3-dimethylbutanoyl)-4-hydroxypyrrolidine-2-carboxamide]",> 1000,< 50,> 1000,–,–,< 50
"Cc1ncsc1-c1ccc([C@H](Cn2cc(CN3CCC(c4ccc5c(c4)-n4c(nc(=O)c6c(Br)cccc64)C54CCCCC4)CC3)nn2)NC(=O)[C@@H]2C[C@@H](O)CN2C(=O)[C@@H](n2cc(C3CC3)nn2)C(C)(C)C)cc1 [Compound A114, (2S,4R)—N—((R)-2-(4-((4-(4′-bromo-5′-oxo-5′H-spiro[cyclohexane-1,7′-indolo[1,2-a]quinazolin]-10′-yl)piperidin-1-yl)methyl)-1H-1,2,3-triazol-1-yl)-1-(4-(4-methylthiazol-5-yl)phenyl)ethyl)-1-((S)-2-(4-cyclopropyl-1H-1,2,3-triazol-1-yl)-3,3-dimethylbutanoyl)-4-hydroxypyrrolidine-2-carboxamide]",10 to 100,70 to 90,100 to 1000,70 to 90,–,–
"Cc1ncsc1-c1ccc([C@H](CC(=O)N2CCC(N3CCC(c4ccc5c(c4)-n4c(nc(=O)c6c(Cl)cccc64)C54CCCCC4)CC3)CC2)NC(=O)[C@@H]2C[C@@H](O)CN2C(=O)[C@@H](n2cc(C3CC3)nn2)C(C)(C)C)cc1 [Compound A143, (2S,4R)—N—((S)-3-(4-(4′-chloro-5′-oxo-5′H-spiro[cyclohexane-1,7′-indolo[1,2-a]quinazolin]-10′-yl)-[1,4′-bipiperidin]-1′-yl)-1-(4-(4-methylthiazol-5-yl)phenyl)-3-oxopropyl)-1-((S)-2-(4-cyclopropyl-1H-1,2,3-triazol-1-yl)-3,3-dimethylbutanoyl)-4-hydroxypyrrolidine-2-carboxamide]",10 to 100,70 to 90,100 to 1000,50 to 69,–,–
"Cc1ncsc1-c1ccc([C@H](CN2CC(C)(O)C2)NC(=O)[C@@H]2C[C@@H](O)CN2C(=O)[C@@H](n2cc([C@H]3CC[C@H](CN4CCC(c5ccc6c(c5)-n5c(nc(=O)c7c(Cl)cccc75)C65CCCCC5)CC4)CC3)nn2)C(C)(C)C)cc1 [Compound A71, (2S,4R)-1-((S)-2-(4-((1r,4S)-4-((4-(4′-chloro-5′-oxo-5′H-spiro[cyclohexane-1,7′-indolo[1,2-a]quinazolin]-10′-yl)piperidin-1-yl)methyl)cyclohexyl)-1H-1,2,3-triazol-1-yl)-3,3-dimethylbutanoyl)-4-hydroxy-N—((R)-2-(3-hydroxy-3-methylazetidin-1-yl)-1-(4-(4-methylthiazol-5-yl)phenyl)ethyl)pyrrolidine-2-carboxamide]",< 100,> 90,> 1000,–,–,50 to 69
"Cc1ncsc1-c1ccc([C@H](C)NC(=O)[C@@H]2C[C@@H](O)CN2C(=O)[C@@H](NC(=O)CN2CCC(c3ccc4c(c3)-n3c(nc(=O)c5c(Cl)cccc53)C43CCCCC3)CC2)C(C)(C)C)cc1 [Compound A39, (2S,4R)-1-((S)-2-(2-(4-(4′-chloro-5′-oxo-5′H-spiro[cyclohexane-1,7′-indolo[1,2-a]quinazolin]-10′-yl)piperidin-1-yl)acetamido)-3,3-dimethylbutanoyl)-4-hydroxy-N—((S)-1-(4-(4-methylthiazol-5-yl)phenyl)ethyl)pyrrolidine-2-carboxamide]",< 100,> 90,< 100,–,–,> 90
